In patent US6486198B1, “Compounds and methods for the treatment of post traumatic stress disorder” (priority 1999, dated 2002):

Columns and labels:
[1] = test system: seizures in rodent models of epilepsy; details: several rodent models; cited from earlier work
[2] = test system: simple and complex partial seizures and secondarily generalized seizures; details: cited from earlier work
PTSD symptoms (PCL-C) = experiment: PTSD Checklist-Civilian Version (PCL-C) self-report scale at baseline and 4 weeks after starting topiramate; assay type: in vivo, human; details: 17 patients
Protocol: (§1) Topiramate was added naturalistically to existing pharmacotherapy (see Table 1 for concomitant medications at start of trial), starting at 25 mglday and increasing whenever possible by 25 to 50 mg/day every 3 to 4 days to clinical response. Target symptoms were DSM-IV PTSD criterion B symptoms of nightmares (N =24) and intrusions (intrusive recollections/flashbacks, N=35) involving re-experiencing of traumas. Definitions of improvement, as assessed from patient self-report, included “partial response” as “definite reduction in intensity and frequency of nightmares or intrusions”, and “full response” as “complete cessation of nightmares and intrusions for a sustained period”. Following the seminal observations, in order to systematically identify responsive symptoms, the next 17 patients completed a self-report scale, the PTSD Checklist—Civilian Version (PCL-C)15, at baseline and at 4 weeks after starting topiramate. The patients were instructed to complete the PCL-C for experiences corresponding to traumas consistent with DSM-IV criterion A for PTSD. Paired ttest scores for the PCL-C were calculated with Jandel SigmaStat® v. 2.0.
Response was also assessed in 17 patients who completed the PCL-C prior to topiramate therapy and at Week 4 of treatment: mean total PCL-C scores were 60±10.4 at baseline and 39±10.5 at Week 4 (instrument range: 17 to 85, threshold for active PTSD=[…], paired t-test). Adjusting the baseline score by subtracting by 17 to set the score for no PTSD symptoms to zero, there was a 48% reduction (59.8 to 38.8)/(59.8-17) in total score. Subscale score reductions were similar for criterion B (re-experiencing), criterion C (avoidance), and criterion D (hyperarousal) symptoms: 60%, 49%, and 42%, respectively.

[3] = test system: patients meeting DSM-IV criteria for chronic PTSD; experiment: Discontinuation, side effects and tolerability in the PTSD patient study; assay type: in vivo, human
Description: Thirty five (35) patients meeting DSM-IV criteria for chronic post-traumatic stress disorder (PTSD) were selected for a study of the effects of topiramate administration. Of these, […] had non-hallucinatory PTSD and 6 hallucinatory PTSD. The group with hallucinatory PTSD experienced auditory and/or visual hallucinations containing content specifically associated with identified traumatic events. Whether these were PTSD “flashbacks” or psychotic experiences were at times difficult to ascertain due to fluctuations in reality testing the hallucinations. For this reason, prior to being screened for PTSD, some patients had received psychiatric diagnoses of psychotic disorders despite meeting full diagnostic criteria for PTSD.
as §1
Thirteen patients eventually discontinued treatment: 9 due to side effects (urticaria [N=1], eating cessation [N=2], ocular and limb paresthesias [N=1], severe headaches [N=1], overstimulation/panic [N=2], emergent suicidal ideation [N=1], and memory concerns [N=1]) and 4 for other reasons (patient choice [N=1], lack of relapse upon medication interruption [N=2], lack of efficacy [N=1]). Five of the discontinuers had experienced full symptom remission prior to discontinuation and 3 additional patients reported partial response.
Discontinuation due to medication-associated side effects, such as nausea and memory concerns, may have been due to the presence of other medications, to medication interactions, or to individual variation in time needed to accommodate to initial side effects. Subsequent to discontinuation of topiramate, the patient who experienced urticaria continued to complain of unrelated episodes of urticaria. […] When they occurred, side effects were easily managed by dosage reduction or a brief hiatus in administration.

For CC1(C)O[C@@H]2[C@@H](CO[C@@]3(COS(N)(=O)=O)OC(C)(C)O[C@@H]23)O1 [Topiramate, 2,3:4,5-bis-O-(1-methylethylidene)-β-D-fructopyranose sulfamate], the “Seizure block in rodent models of epilepsy” value [1] is given as “effectively block seizures”, the “Efficacy in treatment of seizure types” value ([2]; adults and children) is given as “efficacy in the treatment of a broad range of seizure types” and the “Efficacy in clinical trials of human epilepsy” value ([2]; simple and complex partial seizures and secondarily generalized seizures) is given as “effective as adjunctive therapy or as monotherapy”. For the same compound, the “PCL-C subscale score reduction, criterion B (re-experiencing)” value (PTSD symptoms (PCL-C); baseline vs Week 4) was 60%, the “PCL-C subscale score reduction, criterion C (avoidance)” value (PTSD symptoms (PCL-C); baseline vs Week 4) was 49% and the “PCL-C subscale score reduction, criterion D (hyperarousal)” value (PTSD symptoms (PCL-C); baseline vs Week 4) was 42%. The “Reduction in total PCL-C score (baseline adjusted by subtracting 17)” value (PTSD symptoms (PCL-C); baseline vs Week 4) was 48%, the “Mean total PCL-C score at Week 4” value (PTSD symptoms (PCL-C); baseline 60±10.4, instrument range 17 to 85, threshold for active PTSD=50) was 39±10.5 and the “Safety in the study” value ([3]; PTSD patients) was “posed no safety issues”. The Tolerability ([3]; PTSD population) was “appeared well tolerated”, the “Patients discontinued due to side effects” value ([3]; of 35 patients) was 9 and the “Patients who eventually discontinued treatment” value ([3]; of 35 patients) was “Thirteen”. For the same compound, the “Additional discontinuers reporting partial response” value ([3]; of thirteen discontinuers) was 3 patients and the “Discontinuers with full symptom remission prior to discontinuation” value ([3]; of thirteen discontinuers) was “Five”.
